The values that follow come from PMC10605077, “In Vitro and In Silico Antiviral Activity of Di-Halogenated Compounds Derived from L-Tyrosine against Human Immunodeficiency Virus 1 (HIV-1)” (Current Issues in Molecular Biology, 2023).

This data set can be described thus: Viability assay of PBMC, flow cytometry with viability dye. It counts as cell-based, Human. The following applies: human, PBMC stimulated with PHA and IL-2; all concentrations tested (18.75 μM up to 150 μM), 7 days; read-out: viability level on PBMCs. As for the experimental part: PBMCs were thawed and let in the culture in RPMI with 10% fetal bovine serum (FBS) (Gibco, Grand Island, NY, USA) for 24 h before each experiment. Cells were stimulated for 48 h with 8 μg/mL of Phytohemagglutinin-PHA (Sigma-Aldrich, St. Louis, MO, USA) and 50 UI/mL of IL-2 (Peprotech, Rocky Hill, CT, USA). In the presence of various concentrations of di-halogenated compounds derived from L-Tyrosine, 2 × 10^5 cells per well were treated and resuspended in 200 µL of fresh medium with 20 UI/mL of IL-2 and incubated in 96-well culture plates for 7 days. After 7 days post-treatment, cell viability was determined using flow cytometry. Briefly, cells were stained with fixable viability dye eFluor 506 (eBioscience, Leicestershire, UK) as detailed in the manufacturer’s protocol for 30 min in the dark. Later, cells were washed and resuspended in PBS, and the percentage of viable cells was measured instead in the LS Fortessa cytometer (BD Biosciences, Franklin Lakes, NJ, USA). Data were analyzed using FlowJo version 10.5.3 (FlowJo, LLC, Ashland, OR, USA).

Some results are limits rather than exact numbers.

Take `COc1c(Cl)cc(C[C@@H](C(=O)O)N(C)C)cc1Cl` [TODC-2M]: the viability at 7 days was greater than 90%.
